Test results published in patent US20070197452A1, “Treatment of amyloid-related diseases” (priority 2006, published 2007).
“Also recorded” adds a separate entry of the source.

Assays:
Type in all cases: in vivo, mouse
TgCRND8 mice [1] = experiment: Vascular amyloid (Aβ) burden; settings: prophylactic treatment, vs untreated
Protocol: Cerebral amyloid burden. Brains were removed and one hemisphere was fixed in 4% paraformaldehyde and embedded in paraffin wax in the mid sagittal plane. To generate sets of systematic uniform random sections, 5 μm serial sections were collected across the entire hemisphere. Sets of sections at 50 μm intervals were used for analyses (10-14 sections/set). Plaques were identified after antigen retrieval with formic acid, and incubation with primary anti-Aβ antibody (Dako M-0872), followed by secondary antibody (Dako StreptABCcomplex/horseradish kit). End products were visualized with DAB and were counter-stained with luxol fast blue. Amyloid plaque burden was assessed with Leco IA-3001 image analysis software interfaced with Leica microscope and Hitachi KP-M1U CCD video camera. Openlab imaging software (Improvision, Lexington, Mass.) was then used to convert micrographs to binary images for plaque number and plaque area determinations. Vascular amyloid burden was defined as amyloid originating from or surrounding blood vessels and was analysed similarly.
Cerebral Aβ burden. Brains were removed and fixed one hemisphere from each in 4% paraformaldehyde and embedded in paraffin wax in the midsagittal plane. Sets of sections at […] intervals for analyses (10-14 sections per set) were used. Plaques with primary Aβ-specific antibody (Dako M-0872) were identified and visualized with DAB. AP plaque burden was assessed with Openlab imaging software (Improvision) and used to convert micrographs to binary images for determinations of plaque number and plaque area. Vascular Aβ burden was defined as Aβ plaques originating from or surrounding blood vessels and was analyzed similarly.
Cerebral Aβ burden. Brains were removed and one hemisphere was fixed in 4% paraformaldehyde and embedded in paraffin wax in the mid sagittal plane. […] Aβ plaque burden was assessed with Leco IA-3001 image analysis software interfaced with Leica microscope and Hitachi KP-M1U CCD video camera. […] Vascular Aβ burden was defined as Aβ plaques originating from or surrounding blood vessels and was analyzed similarly.

TgCRND8 mice [2] = experiment: Morris water maze spatial reference memory test; settings: for spatial learning performance compared with non-Tg littermates / spatial learning performance compared with untreated TgCRND8 littermates: 28 days of treatment from 5 months of age, tested at 6 months; for cognitive performance compared with non-Tg mice / cognitive performance compared with untreated TgCRND8 mice / cognitive performance compared with non-Tg littermates: prophylactic
Protocol: Behavioural tests: Morris Water Maze testing was performed as previously described. After non-spatial pre-training, mice underwent place discrimination training for 5 days with 4-trials per day, followed by a cued visible platform to rule out general motivational, learning deficits and motor problems, and a probe trial to evaluate memory. […] Open field test for motor activity was preformed as described previously. Duration of walking, pausing and grooming were analyzed as indices of spontaneous locomotor activity. Sensorimotor function was examined with an EconomexTM accelerating rotarod (Columbus Instruments, Columbus, Ohio), as described elsewhere. The rod was set to accelerate at a rate of 0.2 r.p.m./s, from an initial, constant speed of 5 r.p.m. Latency to fall was recorded in four daily trials, conducted at 30 min intervals. All mice were trained for seven days before testing. The test day performance score for each animal was obtained by summing its latency to fall over the four trials Behavioral tests. Morris water maze testing was carried out as previously described. After nonspatial pretraining, mice underwent place discrimination training for 5 d with four trials per day, followed by a cued visible platform trial and a probe trial. An open-field test for motor activity was carried out as described previously. Sensorimotor function was assessed with an Economex accelerating rotarod (Columbus Instruments) as previously described. Behavioural tests. Morris Water Maze testing was performed as previously described. After non-spatial pre-training, mice underwent place discrimination training for 5 days with 4-trials per day, followed by a cued visible platform to rule out general motivational, learning deficits and motor problems, and a probe trial to evaluate memory. The probe trial was conducted at 72 h after the last testing, and used an annulus-crossing index to assess spatial recall. The annulus-crossing index measures the number of passes over the original platform position relative to passes over the other three quadrants. […] Open field test for motor activity was performed as described previously

TgCRND8 mice [3] = experiment: Gliosis quantitation (GFAP astrocytes, CD68 microglia); settings: prophylactic treatment; for astrogliosis (percent brain area covered): 4 and 6 months of age; for microgliosis / microglial activation (percent brain area covered): 6 months of age
Protocol: Gliosis Quantitation. Five randomly selected, evenly spaced, sagittal sections were collected from paraformaldehyde-fixed and frozen hemispheres of treated and control mice. Sections were immunolabelled for astrocytes with anti-rat GFAβ IgG2a (Dako; diluted 1:50) and for microglia with anti-rat CD68 IgG2b (Dako; 1:50). Digital images were captured using a Coolsnap digital camera (Photometrics, Tuscon, Ariz.) mounted to a Zeiss, Axioscope 2 Plus microscope. Images were analysed using Openlab 3.08 imaging software (Improvision, Lexington Mass.). Quantification of gliosis. Five randomly selected, evenly spaced sagittal sections from paraformaldehyde-fixed and frozen hemispheres of treated and control mice were collected. Sections were immunolabeled for astrocytes with an antibody against rat GFAβ IgG2a (Dako; diluted 1:50) and for microglia with an antibody to rat CD68 IgG2b (Dako; 1:50). Digital images were captured using a Coolsnap digital camera (Photometrics) mounted to a Zeiss, Axioscope 2 Plus microscope. Images were analyzed using Openlab 3.08 imaging software (Improvision).

TgCRND8 mice [4] = experiment: Survival census (Kaplan-Meier); settings: prophylactic treatment, vs untreated, n=35 per group
Protocol: (§1) Survival Census: The probability of survival was assessed by the Kaplan-Meier technique, computing the probability of survival at every occurrence of death, thus making it suitable for small sample sizes. For the analyses of survival, 35 mice were used for each treatment group. The Tarone-Ware test was used to assess effects of treatments.
as §1, with “census.” for “Census:”, “using” for “by”

[5] = listed as scyllocyclohexanehexol

SMILES: OC1C(O)C(O)C(O)C(O)C1O (stereo not drawn) [epi-cyclohexanehexol, 1,2,3,4,5/6-(epi-) cyclohexanehexol, reference compound]
- total vascular Aβ load / vascular Aβ deposits (TgCRND8 mice [1]): no change
- spatial learning performance compared with non-Tg littermates (TgCRND8 mice [2]): significantly poorer than the performance of their non-Tg littermates; also recorded: remained impaired with respect to non-Tg littermates; also recorded: remained impaired with respect to nontransgenic littermates
- spatial learning performance compared with untreated TgCRND8 littermates (TgCRND8 mice [2]): not significantly different from that of untreated TgCRND8 littermates; also recorded: ineffective at reversing behavioral deficits
- spatial learning performance compared with non-Tg littermates (TgCRND8 mice [2]; listed as AZD-102): remained impaired with respect to non-Tg littermates
- spatial learning performance compared with untreated TgCRND8 littermates (TgCRND8 mice [2]; listed as AZD-102): not different from untreated TgCRND8 littermates
- cognitive performance compared with non-Tg mice (TgCRND8 mice [2]; 6 weeks to 4 months of age): significantly different from treated and untreated nontransgenic mice
- cognitive performance compared with untreated TgCRND8 mice (TgCRND8 mice [2]; 6 weeks to 4 months of age): significant behavioral improvement
- cognitive performance compared with non-Tg mice (TgCRND8 mice [2]; 6 weeks to 4 months of age, listed as AZD-102): significantly different from treated and untreated non-Tg mice
- cognitive performance compared with non-Tg littermates (TgCRND8 mice [2]; 6 weeks to 6 months of age): indistinguishable from nontransgenic littermates; also recorded: approached that of nontransgenic littermates
- cognitive performance compared with untreated TgCRND8 mice (TgCRND8 mice [2]; 6 weeks to 6 months of age): significantly better cognitive function compared to untreated TgCRND8 littermates
- cognitive performance compared with non-Tg littermates (TgCRND8 mice [2]; 6 weeks to 6 months of age, listed as AZD-102): approached that of non-Tg littermates
- astrogliosis (percent brain area covered) (TgCRND8 mice [3]): decreased the percent brain area covered in astrogliosis
- astrogliosis (percent brain area covered) (TgCRND8 mice [3]; listed as AZD-102): decreased the percent brain area covered in astrogliosis; also recorded: decrease in astrogliosis
- astrogliosis (percent brain area covered) (TgCRND8 mice [3]; listed as Epi-cyclohexanehexol): decreased the astrogliotic response; also recorded: decrease in astrogliosis
- microgliosis / microglial activation (percent brain area covered) (TgCRND8 mice [3]): decreased the percent brain area covered with microgliosis
- microgliosis / microglial activation (percent brain area covered) (TgCRND8 mice [3]; listed as AZD-102): decreased the percent brain area covered with microgliosis
- microgliosis / microglial activation (percent brain area covered) (TgCRND8 mice [3]; listed as Epi-cyclohexanehexol): no effect on microglial activation
- survival (Kaplan-Meier cumulative survival) (TgCRND8 mice [4]; listed as AZD-102): did not significantly improve survival
- survival (Kaplan-Meier cumulative survival) (TgCRND8 mice [4]; listed as Epi-cyclohexanehexol): did not significantly improve survival

SMILES: OC1C(O)C(O)C(O)C(O)C1O (stereo not drawn) [scyllo-cyclohexanehexol, 1,3,5/2,4,6-(scyllo-) cyclohexanehexol]
- brain area covered by cerebrovascular Aβ (TgCRND8 mice [1]): reduced brain area covered by cerebrovascular Aβ
- mean size of cerebrovascular deposits (TgCRND8 mice [1]): reduced mean size of cerebrovascular deposits
- spatial learning performance compared with non-Tg littermates (TgCRND8 mice [2]): indistinguishable from that of their non-Tg littermates; also recorded: indistinguishable from nontransgenic littermates
- spatial learning performance compared with untreated TgCRND8 littermates (TgCRND8 mice [2]): significantly better behavioural performance compared to untreated TgCRND8 mice; also recorded: significantly better than untreated TgCRND8 littermates
- spatial learning performance compared with non-Tg littermates (TgCRND8 mice [2]; listed as AZD-103): indistinguishable from non-Tg littermates
- spatial learning performance compared with untreated TgCRND8 littermates (TgCRND8 mice [2]; listed as AZD-103): significantly better than untreated TgCRND8 littermates
- spatial learning performance compared with non-Tg littermates (TgCRND8 mice [2]; [5]): indistinguishable from nontransgenic littermates
- spatial learning performance compared with untreated TgCRND8 littermates (TgCRND8 mice [2]; [5]): improved behavioral performance
- effect on cognition (TgCRND8 mice [2]; TgCRND8 mice treated for 2 months, ending at 7 months of age): Sustained effects
- spatial memory, dose-response (TgCRND8 mice [2]; TgCRND8 mice, 0.3-30 mg/kg/d orally, tested at 4 months of age): dose-dependent improvement
- cognitive performance compared with non-Tg mice (TgCRND8 mice [2]; 6 weeks to 4 months of age): approached that of nontransgenic mice
- cognitive performance compared with untreated TgCRND8 mice (TgCRND8 mice [2]; 6 weeks to 4 months of age): significant behavioral improvement
- cognitive performance compared with non-Tg mice (TgCRND8 mice [2]; 6 weeks to 4 months of age, listed as AZD-103): approached that of non-Tg mice
- cognitive performance compared with non-Tg mice (TgCRND8 mice [2]; 6 weeks to 4 months of age, listed as Scyllo-cyclohexanehexol): indistinguishable from nontransgenic littermates on days 4 and 5 of testing
- cognitive performance compared with non-Tg littermates (TgCRND8 mice [2]; 6 weeks to 6 months of age): indistinguishable from nontransgenic littermates; also recorded: approached that of nontransgenic littermates
- cognitive performance compared with untreated TgCRND8 mice (TgCRND8 mice [2]; 6 weeks to 6 months of age): significantly better cognitive function compared to untreated TgCRND8 littermates
- astrogliosis (percent brain area covered) (TgCRND8 mice [3]): decreased astrogliosis much more efficiently
- astrogliosis (percent brain area covered) (TgCRND8 mice [3]; listed as AZD-103): decreased the astrogliotic response to a greater extent; also recorded: significantly decreased
- astrogliosis (percent brain area covered) (TgCRND8 mice [3]; listed as Scyllo-cyclohexanehexol): decreased the astrogliotic response to a greater extent than epi-cyclohexanehexol; also recorded: significantly decreased
- microgliosis / microglial activation (percent brain area covered) (TgCRND8 mice [3]): attenuated microglial activation; also recorded: decreased the percent brain area covered with microgliosis
- microgliosis / microglial activation (percent brain area covered) (TgCRND8 mice [3]; listed as AZD-103): decreased the percent brain area covered with microgliosis
- survival (Kaplan-Meier cumulative survival) (TgCRND8 mice [4]): accelerated mortality was reversed; also recorded: increased survival
- survival (Kaplan-Meier cumulative survival) (TgCRND8 mice [4]; listed as AZD-103): increased survival
